Test system: C57/BL6J mice
Experiment: In vivo plasma GLP-1 level-increasing action: plasma active GLP-1 level (ELISA) after oral administration
Details: 10 mg/kg oral; for Significant difference (p < 0.05) vs control group, plasma active GLP-1 level: 30 minutes, Student's t-test; for Plasma active GLP-1 level (relative value to control group as 100), average value: blood 30 minutes after, 0.5% CMC-Na group = 100
Method: Seven-week-old male C57/BL6J mice were purchased from CLEA Japan, Inc. for use, and they were subjected to an experiment after 1 week of a habituation period.
After the habituation period, the mice were subjected to 5.5 hours of food deprivation and 2 hours of water deprivation. Thereafter, a cyclic dipeptide dissolved or suspended in a 0.5% CMC-Na aqueous solution in 10 mg/kg was orally administered to each mouse forcibly. After 30 minutes, the blood was collected from the abdominal vena cava under anesthesia, and 1 μL of heparin sodium and 1 μL of 10 mM Sitagliptin phosphate were added to each collected blood, which was then subjected to centrifugation at 8000 rpm for 10 minutes to recover the plasma, and the plasma active GLP-1 level was measured by using the ELISA kit. In the analysis, the active GLP-1 level for a group administered with 0.5% CMC-Na aqueous solution was defined as 100, and relative values thereto were used.

In the case of `CCC(C)C1NC(=O)C(Cc2ccc(O)cc2)NC1=O` (stereo not shown) [compound 89, Cyclo(Ile-Tyr)], the “Significant difference (p < 0.05) vs control group, plasma active GLP-1 level” value (Table 12, Experiment 7) is reported as “No” and the “Plasma active GLP-1 level (relative value to control group as 100), average value” (Table 12, Experiment 7) is reported as 222.

With `CC(C)[C@@H]1NC(=O)CNC1=O` [compound 155, Cyclo(Val-Gly)] the “Significant difference (p < 0.05) vs control group, plasma active GLP-1 level” value (Table 15, Experiment 10) was “No” and the “Plasma active GLP-1 level (relative value to control group as 100), average value” (Table 15, Experiment 10) was 55.

With `CSCCC1NC(=O)C(CCSC)NC1=O` (stereo not shown) [compound 12, Cyclo(Met-Met)] the “Significant difference (p < 0.05) vs control group, plasma active GLP-1 level” value (Table 9, Experiment 4) was “No” and the “Plasma active GLP-1 level (relative value to control group as 100), average value” (Table 9, Experiment 4) was 110.

With `CC(C)[C@@H]1NC(=O)[C@H](Cc2ccc(O)cc2)NC1=O` [compound 88, cyclo-valyl-tyrosine] the “Significant difference (p < 0.05) vs control group, plasma active GLP-1 level” value (Table 12, Experiment 7) was “Yes” and the “Plasma active GLP-1 level (relative value to control group as 100), average value” (Table 12, Experiment 7) was 385.

With `CC[C@H](C)[C@@H]1NC(=O)[C@H]([C@@H](C)CC)NC1=O` [compound 14, Cyclo(Ile-Ile)] the “Significant difference (p < 0.05) vs control group, plasma active GLP-1 level” value (Table 9, Experiment 4) was “No” and the “Plasma active GLP-1 level (relative value to control group as 100), average value” (Table 9, Experiment 4) was 105.

For `CC(C)CC1NC(=O)C(C(C)O)NC1=O` (stereo not shown) [compound 105, Cyclo(Thr-Leu)], the “Significant difference (p < 0.05) vs control group, plasma active GLP-1 level” value (Table 13, Experiment 8) was “No” and the “Plasma active GLP-1 level (relative value to control group as 100), average value” (Table 13, Experiment 8) was 94.

`CC1NC(=O)C(C(C)C)NC1=O` (stereo not shown) [compound 122, Cyclo(Val-Ala)] was tested, and the “Significant difference (p < 0.05) vs control group, plasma active GLP-1 level” value (Table 13, Experiment 8) was “No” and the “Plasma active GLP-1 level (relative value to control group as 100), average value” (Table 13, Experiment 8) was 94.

For `O=C(O)CCC1NC(=O)C(CS)NC1=O` (stereo not shown) [compound 179, cyclo-glutamyl-cysteine], the “Significant difference (p < 0.05) vs control group, plasma active GLP-1 level” value (Table 15, Experiment 10) was “Yes” and the “Plasma active GLP-1 level (relative value to control group as 100), average value” (Table 15, Experiment 10) was 304.

In the case of `O=C(O)CC[C@@H]1NC(=O)[C@H](Cc2ccc(O)cc2)NC1=O` [compound 87, Cyclo(Glu-Tyr)], the “Significant difference (p < 0.05) vs control group, plasma active GLP-1 level” value (Table 12, Experiment 7) is reported as “No” and the “Plasma active GLP-1 level (relative value to control group as 100), average value” (Table 12, Experiment 7) is reported as 141.

In the case of `C[C@@H](O)[C@@H]1NC(=O)[C@H](Cc2c[nH]c3ccccc23)NC1=O` [compound 79, Cyclo(Trp-Thr)], the “Significant difference (p < 0.05) vs control group, plasma active GLP-1 level” value (Table 11, Experiment 6) is reported as “No” and the “Plasma active GLP-1 level (relative value to control group as 100), average value” (Table 11, Experiment 6) is reported as 100.

For `O=C1N[C@@H](Cc2c[nH]c3ccccc23)C(=O)N[C@H]1Cc1ccc(O)cc1` [compound 22, cyclo-tryptophanyl-tyrosine], the “Significant difference (p < 0.05) vs control group, plasma active GLP-1 level” value (Table 8, Experiment 3) was “Yes” and the “Plasma active GLP-1 level (relative value to control group as 100), average value” (Table 8, Experiment 3) was 203.

With `O=C(O)C[C@@H]1NC(=O)[C@H](Cc2ccccc2)NC1=O` [compound 33, Cyclo(Asp-Phe)] the “Significant difference (p < 0.05) vs control group, plasma active GLP-1 level” value (Table 9, Experiment 4) was “No” and the “Plasma active GLP-1 level (relative value to control group as 100), average value” (Table 9, Experiment 4) was 90.

For `CC(C)C1NC(=O)C(C(C)O)NC1=O` (stereo not shown) [compound 139, cyclo-valyl-threonine], the “Significant difference (p < 0.05) vs control group, plasma active GLP-1 level” value (Table 14, Experiment 9) was “Yes” and the “Plasma active GLP-1 level (relative value to control group as 100), average value” (Table 14, Experiment 9) was 120.

In the case of `CSCCC1NC(=O)C(C(C)C)NC1=O` (stereo not shown) [compound 160, cyclo-methionyl-valine], the “Significant difference (p < 0.05) vs control group, plasma active GLP-1 level” value (Table 15, Experiment 10) is reported as “Yes” and the “Plasma active GLP-1 level (relative value to control group as 100), average value” (Table 15, Experiment 10) is reported as 304.

For `O=C1N[C@@H](Cc2c[nH]c3ccccc23)C(=O)N[C@H]1Cc1c[nH]c2ccccc12` [compound 75, cyclo-tryptophanyl-tryptophan], the “Significant difference (p < 0.05) vs control group, plasma active GLP-1 level” value (Table 8, Experiment 3) was “Yes” and the “Plasma active GLP-1 level (relative value to control group as 100), average value” (Table 8, Experiment 3) was 229.

In the case of `CSCCC1NC(=O)C(CCCCN)NC1=O` (stereo not shown) [compound 70, Cyclo(Met-Lys)], the “Significant difference (p < 0.05) vs control group, plasma active GLP-1 level” value (Table 10, Experiment 5) is reported as “No” and the “Plasma active GLP-1 level (relative value to control group as 100), average value” (Table 10, Experiment 5) is reported as 93.

With `O=C1N[C@@H](Cc2cnc[nH]2)C(=O)N[C@H]1Cc1ccccc1` [compound 38, cyclo-histidyl-phenylalanine] the “Significant difference (p < 0.05) vs control group, plasma active GLP-1 level” value (Table 8, Experiment 3) was “Yes” and the “Plasma active GLP-1 level (relative value to control group as 100), average value” (Table 8, Experiment 3) was 264.

With `O=C1N[C@@H](Cc2ccc(O)cc2)C(=O)N2CCC[C@@H]12` [compound 30, Cyclo(Pro-Tyr)] the “Significant difference (p < 0.05) vs control group, plasma active GLP-1 level” value (Table 9, Experiment 4) was “No” and the “Plasma active GLP-1 level (relative value to control group as 100), average value” (Table 9, Experiment 4) was 95.

In the case of `O=C1N[C@@H](Cc2ccccc2)C(=O)N[C@H]1Cc1ccccc1` [compound 17, cyclo-phenylalanyl-phenylalanine], the “Significant difference (p < 0.05) vs control group, plasma active GLP-1 level” value (Table 8, Experiment 3) is reported as “Yes” and the “Plasma active GLP-1 level (relative value to control group as 100), average value” (Table 8, Experiment 3) is reported as 203.

For `CSCCC1NC(=O)C(Cc2cnc[nH]2)NC1=O` (stereo not shown) [compound 120, cyclo-methionyl-histidine], the “Significant difference (p < 0.05) vs control group, plasma active GLP-1 level” value (Table 13, Experiment 8) was “Yes” and the “Plasma active GLP-1 level (relative value to control group as 100), average value” (Table 13, Experiment 8) was 154.

In the case of `NC(=O)C[C@@H]1NC(=O)[C@H](Cc2ccc(O)cc2)NC1=O` [compound 92, Cyclo(Asn-Tyr)], the “Significant difference (p < 0.05) vs control group, plasma active GLP-1 level” value (Table 12, Experiment 7) is reported as “No” and the “Plasma active GLP-1 level (relative value to control group as 100), average value” (Table 12, Experiment 7) is reported as 181.

With `O=C1CNC(=O)C(Cc2c[nH]c3ccccc23)N1` (stereo not shown) [compound 26, cyclo-glycyl-tryptophan] the “Significant difference (p < 0.05) vs control group, plasma active GLP-1 level” value (Table 8, Experiment 3) was “Yes” and the “Plasma active GLP-1 level (relative value to control group as 100), average value” (Table 8, Experiment 3) was 264.

`CC(C)C[C@@H]1NC(=O)[C@H](Cc2c[nH]c3ccccc23)NC1=O` [compound 39, cyclo-leucyl-tryptophan] was tested, and the “Significant difference (p < 0.05) vs control group, plasma active GLP-1 level” value (Table 8, Experiment 3) was “Yes” and the “Plasma active GLP-1 level (relative value to control group as 100), average value” (Table 8, Experiment 3) was 229.

In the case of `O=C1N[C@@H](Cc2ccc(O)cc2)C(=O)N[C@H]1Cc1ccc(O)cc1` [compound 49, Cyclo(Tyr-Tyr)], the “Significant difference (p < 0.05) vs control group, plasma active GLP-1 level” value (Table 10, Experiment 5) is reported as “No” and the “Plasma active GLP-1 level (relative value to control group as 100), average value” (Table 10, Experiment 5) is reported as 100.

For `CC(C)CC1NC(=O)C(CC(=O)O)NC1=O` (stereo not shown) [compound 146, cyclo-aspartyl-leucine], the “Significant difference (p < 0.05) vs control group, plasma active GLP-1 level” value (Table 15, Experiment 10) was “Yes” and the “Plasma active GLP-1 level (relative value to control group as 100), average value” (Table 15, Experiment 10) was 259.

With `CC[C@H](C)[C@@H]1NC(=O)[C@H]([C@H](C)O)NC1=O` [compound 161, cyclo-isoleucyl-threonine] the “Significant difference (p < 0.05) vs control group, plasma active GLP-1 level” value (Table 15, Experiment 10) was “Yes” and the “Plasma active GLP-1 level (relative value to control group as 100), average value” (Table 15, Experiment 10) was 282.

`NC(=O)CC1NC(=O)C(Cc2c[nH]c3ccccc23)NC1=O` (stereo not shown) [compound 81, Cyclo(Trp-Asn)] was tested, and the “Significant difference (p < 0.05) vs control group, plasma active GLP-1 level” value (Table 11, Experiment 6) was “No” and the “Plasma active GLP-1 level (relative value to control group as 100), average value” (Table 11, Experiment 6) was 100.

For `O=C1NC(Cc2c[nH]c3ccccc23)C(=O)NC1Cc1ccccc1` (stereo not shown) [compound 28, cyclo-phenylalanyl-tryptophan], the “Significant difference (p < 0.05) vs control group, plasma active GLP-1 level” value (Table 8, Experiment 3) was “Yes” and the “Plasma active GLP-1 level (relative value to control group as 100), average value” (Table 8, Experiment 3) was 255.

For `CC(O)C1NC(=O)C(Cc2ccccc2)NC1=O` (stereo not shown) [compound 56, Cyclo(Thr-Phe)], the “Significant difference (p < 0.05) vs control group, plasma active GLP-1 level” value (Table 10, Experiment 5) was “No” and the “Plasma active GLP-1 level (relative value to control group as 100), average value” (Table 10, Experiment 5) was 87.

`CC[C@H](C)[C@@H]1NC(=O)[C@H](Cc2cnc[nH]2)NC1=O` [compound 148, cyclo-isoleucyl-histidine] was tested, and the “Significant difference (p < 0.05) vs control group, plasma active GLP-1 level” value (Table 15, Experiment 10) was “Yes” and the “Plasma active GLP-1 level (relative value to control group as 100), average value” (Table 15, Experiment 10) was 259.

With `CC(C)C[C@@H]1NC(=O)[C@H](Cc2cnc[nH]2)NC1=O` [compound 103, Cyclo(His-Leu)] the “Significant difference (p < 0.05) vs control group, plasma active GLP-1 level” value (Table 13, Experiment 8) was “No” and the “Plasma active GLP-1 level (relative value to control group as 100), average value” (Table 13, Experiment 8) was 94.

`N=C(N)NCCCC1NC(=O)C(Cc2ccc(O)cc2)NC1=O` (stereo not shown) [compound 94, Cyclo(Arg-Tyr)] was tested, and the “Significant difference (p < 0.05) vs control group, plasma active GLP-1 level” value (Table 12, Experiment 7) was “No” and the “Plasma active GLP-1 level (relative value to control group as 100), average value” (Table 12, Experiment 7) was 222.
